Source: patent US8069687B2, “Working media for refrigeration processes” (priority 2005, dated 2011)
Where two headings read alike, the source gives them in different places.

How the values were obtained:
[1] = Absorption isotherm: partial pressure of R134a over sorbent material at 20° C.; assay type: physicochemical
Description: Absorption isotherms result from the amount of a volatile component (here the refrigerant) which, at a predetermined temperature and at pressures which are generally lower than the vapor pressure of the pure refrigerant; dissolves, in an equilibrium state, in a very high-boiling or nonvolatile liquid (here the sorbent material). The pairs of values of concentration of the liquid binary mixture and the pressure of the volatile component over the liquid at a given temperature thereby give an absorption isotherm. Such absorption isotherms of high-boiling or nonvolatile liquid substances can be measured using various dynamic or static experimental methods of which, here, by way of example reference is made to a dynamic, gravimetric method, as was presented by Sadowski G., Mokrushina L. V., Arlt, W., “Finite and infinite dilution activity coefficients in polycarbonate systems”, Fluid Phase Equilibria, 139 (1997) 391-493. In the absorption refrigerating machines considered here, a sorbent material shall absorb the refrigerant after its expansion and vaporization at a low pressure. An advantageous sorbent material, at a given pressure, takes up as much refrigerant as possible, whereupon the volume and the masses of the circulating streams minimize (or lower pressure for the same composition). This leads to the fact that the unit achieves a higher degree of efficiency and can be more advantageous with respect to its dimensions and also the amount of absorber used.
The measurements were carried out at 20° C.

[2] = Absorption isotherm: partial pressure of 2,2,2-trifluoroethanol over sorbent material at 70° C.; assay type: physicochemical
Description: Absorption isotherms result from the amount of a volatile component (here the refrigerant) which, at a predetermined temperature and at pressures which are generally lower than the vapor pressure of the pure refrigerant; dissolves, in an equilibrium state, in a very high-boiling or nonvolatile liquid (here the sorbent material). The pairs of values of concentration of the liquid binary mixture and the pressure of the volatile component over the liquid at a given temperature thereby give an absorption isotherm. […] In the absorption refrigerating machines considered here, a sorbent material shall absorb the refrigerant after its expansion and vaporization at a low pressure. An advantageous sorbent material, at a given pressure, takes up as much refrigerant as possible, whereupon the volume and the masses of the circulating streams minimize (or lower pressure for the same composition). This leads to the fact that the unit achieves a higher degree of efficiency and can be more advantageous with respect to its dimensions and also the amount of absorber used.
The measurements were carried out at 70° C.

[3] = 25° C.; as described by N. Bicak; cited from earlier work
[4] = as described by N. Bicak; cited from earlier work
[5] = Description: If, as described in • W. Pennington; How to find accurate vapor pressures of lithium bromide water solutions; Refrig. Eng. 63 (May 1955) 57-61 or • D. A. Boryta, A. J. Maas, C. B. Grant; Vapor pressure-temperature-concentration relationship for system lithium bromide and water (40-70% lithium bromide); J. Chem. Eng. Data 20 (1975) 316-319 or • S. Iyoki, T. Uemura; Vapor pressure of the water-lithium bromide system and water-lithium bromide-zinc bromide-lithium chloride system at high temperatures; Int. […] In the prior art, the use of LiBr as absorbent and water as refrigerant is very widespread.
(§1) If, as described in • W. Pennington; How to find accurate vapor pressures of lithium bromide water solutions; Refrig. Eng. 63 (May 1955) 57-61 or • D. A. Boryta, A. J. Maas, C. B. Grant; Vapor pressure-temperature-concentration relationship for system lithium bromide and water (40-70% lithium bromide); J. Chem. Eng. Data 20 (1975) 316-319 or • S. Iyoki, T. Uemura; Vapor pressure of the water-lithium bromide system and water-lithium bromide-zinc bromide-lithium chloride system at high temperatures; Int.
as §1, with “Ethoxylated cocodiethanolammonium chloride is an ionic liquid which can be obtained under the name TEGO IL K5 from Degussa AG. If,” for “If,”
as §1, with “The ionic liquid diethylpolypropoxymethylammonium chloride can be obtained from Degussa AG under the name TEGO IL P9. If,” for “If,”
as §1

[6] = in vivo; cited from earlier work
[7] = Crystallization of the sorbent in water; assay type: physicochemical; conditions: T≧20° C.; concentrations greater than 65 mass % ionic liquid in water
[8] = depending on system temperature; prior art; cited from earlier work
[9] = mass fraction of the sorbent material 0.20
[10] = mass fraction of the sorbent material 0.40
[11] = mass fraction of the sorbent material 0.60
[12] = mass fraction of the sorbent material 0.80
[13] = mass fraction of ionic liquid 0.20
[14] = mass fraction of ionic liquid 0.40
[15] = mass fraction of ionic liquid 0.60
[16] = mass fraction of ionic liquid 0.80
[17] = 20° C., 80 mass % ionic liquid and 20 mass % water
[18] = 20° C., 80 mass % ionic liquid and 20 mass % water, pure water 23.37 mbar
[19] = 40° C., 92 mass % ionic liquid and 8 mass % water

## 1,3-dimethylimidazolium dimethyl phosphate [MMIM MMPO4]
[1]; [9]
  Partial pressure of R134a: 439 kPa
[1]; [10]
  Partial pressure of R134a: 303 kPa
[1]; [11]
  Partial pressure of R134a: 164 kPa
[1]; [12]
  Partial pressure of R134a: 57 kPa
[2]; [13]
  Partial pressure of 2,2,2-trifluoroethanol: 39.7 kPa
[2]; [14]
  Partial pressure of 2,2,2-trifluoroethanol: 10.7 kPa
[2]; [15]
  Partial pressure of 2,2,2-trifluoroethanol: 3.2 kPa
[2]; [16]
  Partial pressure of 2,2,2-trifluoroethanol: 0.8 kPa

## NCCO.O=CO [2-Hydroxyethylammonium formate]
[3]
  vapor pressure: 2.2×10^−2 torr
[4]
  thermal stability, upper temperature: up to 150 °C
Stability to hydrolysis
  stability to hydrolysis: comparatively poor stability to hydrolysis

## CCCCn1cc[n+](C)c1.F[B-](F)(F)F [BMIM BF4, 1-butyl-3-methylimidazolium tetrafluoroborate, reference compound]
[2]; [13]
  Partial pressure of 2,2,2-trifluoroethanol: 70.2 kPa
[2]; [14]
  Partial pressure of 2,2,2-trifluoroethanol: 53.0 kPa
[2]; [15]
  Partial pressure of 2,2,2-trifluoroethanol: 35.9 kPa
[2]; [16]
  Partial pressure of 2,2,2-trifluoroethanol: 18.0 kPa

## CCCCn1cc[n+](C)c1.[Br-] [BMIM Br, 1-butyl-3-methylimidazolium bromide, reference compound]
[2]; [13]
  Partial pressure of 2,2,2-trifluoroethanol: 42.2 kPa
[2]; [14]
  Partial pressure of 2,2,2-trifluoroethanol: 15.1 kPa
[2]; [15]
  Partial pressure of 2,2,2-trifluoroethanol: 5.6 kPa
[2]; [16]
  Partial pressure of 2,2,2-trifluoroethanol: 1.6 kPa

## CCn1cc[n+](C)c1.[Cl-] [EMIM Cl]
[1]; [9]
  Partial pressure of R134a: 327 kPa
[1]; [10]
  Partial pressure of R134a: 135 kPa
[1]; [11]
  Partial pressure of R134a: 37 kPa
[1]; [12]
  Partial pressure of R134a: 7 kPa
[2]; [13]
  Partial pressure of 2,2,2-trifluoroethanol: 19.3 kPa
[2]; [14]
  Partial pressure of 2,2,2-trifluoroethanol: 4.0 kPa
[2]; [15]
  Partial pressure of 2,2,2-trifluoroethanol: 1.0 kPa
[2]; [16]
  Partial pressure of 2,2,2-trifluoroethanol: 0.2 kPa

## CCn1cc[n+](C)c1 [EMIM EtSO4]
[5]; [17]
  water partial pressure: 15 mbar
[5]; [18]
  factor by which the vapor pressure of pure water was lowered: 1.56
[6]
  LD50: > 2000 mg/kg
[7]
  crystallization in water: does not crystallize out
[1]; [9]
  Partial pressure of R134a: 360 kPa

## CCn1cc[n+](C)c1.CS(=O)(=O)[O-] [EMIM MeSO3]
[5]; 30° C., 87 mass % ionic liquid and 13 mass % water
  water partial pressure: 9 mbar
[5]; 30° C., 87 mass % ionic liquid and 13 mass % water, pure water 42.41 mbar
  factor by which the vapor pressure of pure water was lowered: 4.7
[7]
  crystallization in water: does not crystallize out
[2]; [13]
  Partial pressure of 2,2,2-trifluoroethanol: 39.7 kPa
[2]; [14]
  Partial pressure of 2,2,2-trifluoroethanol: 13.5 kPa
[2]; [15]
  Partial pressure of 2,2,2-trifluoroethanol: 4.6 kPa
[2]; [16]
  Partial pressure of 2,2,2-trifluoroethanol: 1.2 kPa

## CC(=O)[O-].CCn1cc[n+](C)c1 [EMIM OAc]
[1]; [9]
  Partial pressure of R134a: 360 kPa
[1]; [10]
  Partial pressure of R134a: 175 kPa
[1]; [11]
  Partial pressure of R134a: 66 kPa
[1]; [12]
  Partial pressure of R134a: 17 kPa
[2]; [13]
  Partial pressure of 2,2,2-trifluoroethanol: 24.7 kPa
[2]; [14]
  Partial pressure of 2,2,2-trifluoroethanol: 3.7 kPa
[2]; [15]
  Partial pressure of 2,2,2-trifluoroethanol: 0.8 kPa
[2]; [16]
  Partial pressure of 2,2,2-trifluoroethanol: 0.2 kPa

## CCn1cc[n+](C)c1.[OH-] [EMIM OH]
[1]; [9]
  Partial pressure of R134a: 345 kPa
[1]; [10]
  Partial pressure of R134a: 112 kPa
[1]; [11]
  Partial pressure of R134a: 20 kPa
[1]; [12]
  Partial pressure of R134a: 3 kPa
[2]; [13]
  Partial pressure of 2,2,2-trifluoroethanol: 5.0 kPa
[2]; [14]
  Partial pressure of 2,2,2-trifluoroethanol: <0.1 kPa
[2]; [15]
  Partial pressure of 2,2,2-trifluoroethanol: <0.1 kPa
[2]; [16]
  Partial pressure of 2,2,2-trifluoroethanol: <0.1 kPa

## [Br-].[Li+] [LiBr, lithium bromide]
[8]
  LiBr concentration above which LiBr crystallizes in water: above 60 mass %

## CCCC[n+]1ccc(C)cc1.[Cl-] [MBP Cl, 1-butyl-4-methylpyridinium chloride]
[2]; [13]
  Partial pressure of 2,2,2-trifluoroethanol: 25.2 kPa
[2]; [14]
  Partial pressure of 2,2,2-trifluoroethanol: 5.0 kPa
[2]; [15]
  Partial pressure of 2,2,2-trifluoroethanol: 1.3 kPa
[2]; [16]
  Partial pressure of 2,2,2-trifluoroethanol: 0.3 kPa

## C[N+](C)(CCO)CCO.[Cl-] [Salt A, bis(2-hydroxyethyl)dimethylammonium chloride]
[2]; [13]
  Partial pressure of 2,2,2-trifluoroethanol: 33.0 kPa
[2]; [14]
  Partial pressure of 2,2,2-trifluoroethanol: 11.1 kPa
[2]; [15]
  Partial pressure of 2,2,2-trifluoroethanol: 3.6 kPa
[2]; [16]
  Partial pressure of 2,2,2-trifluoroethanol: 0.7 kPa

## CS(=O)(=O)[O-].C[N+](C)(CCO)CCO [Salt B, bis(2-hydroxyethyl)dimethylammonium methylsulfonate]
[5]; [17]
  water partial pressure: 14 mbar
[5]; [19]
  pressure reduction factor compared with the vapor pressure of pure water: 5.3
  water partial pressure: approximately 13.9 mbar
[7]
  crystallization in water: does not crystallize out
[2]; [13]
  Partial pressure of 2,2,2-trifluoroethanol: 42.0 kPa
[2]; [16]
  Partial pressure of 2,2,2-trifluoroethanol: 1.6 kPa

## diethylpolypropoxymethylammonium chloride [TEGO IL P9]
[5]; 30° C., 94 mass % ionic liquid and 6 mass % water
  water partial pressure: 6 mbar
[5]; 30° C., 94 mass % ionic liquid and 6 mass % water, pure water 42.41 mbar
  factor by which the vapor pressure of pure water was decreased: 7.07
[7]
  crystallization in water: does not crystallize out

## ethoxylated cocodiethanolammonium chloride [TEGO IL K5]
[5]; [17]
  water partial pressure: 17 mbar
[5]; [18]
  factor by which the vapor pressure of pure water was lowered: 1.38
[7]
  crystallization in water: does not crystallize out
